Measured values taken from patent US20110098325A1, “PYRIDINE BENZAMIDES AND PYRAZINE BENZAMIDES USED AS PKD INHIBITORS” (CANCER RESEARCH TECHNOLOGY LIMITED, priority 2006, published 2011).

Target: T1, Murine PKD1 kinase domain (Mus musculus, UniProt Q62101)
T1 construct: hexahistidine (pFastBac HTb leader) (N); made in house; host or cells: Sf9 insect cells, baculovirus (Bac-to-Bac HT, pFastBac HTb)
T1 sequence (Q62101 with tags, fused parts or gaps R683W): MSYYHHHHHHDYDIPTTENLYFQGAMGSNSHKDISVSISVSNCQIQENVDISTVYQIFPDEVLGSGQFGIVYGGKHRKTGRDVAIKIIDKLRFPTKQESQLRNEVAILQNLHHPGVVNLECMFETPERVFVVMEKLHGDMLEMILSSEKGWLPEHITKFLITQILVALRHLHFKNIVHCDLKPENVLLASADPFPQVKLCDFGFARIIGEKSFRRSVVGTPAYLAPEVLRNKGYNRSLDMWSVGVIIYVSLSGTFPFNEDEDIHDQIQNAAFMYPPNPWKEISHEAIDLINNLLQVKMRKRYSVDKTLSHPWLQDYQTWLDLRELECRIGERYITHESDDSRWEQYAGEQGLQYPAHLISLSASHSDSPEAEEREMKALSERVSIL
Experiment: PKD1 (Murine Kinase Domain) Enzyme Activity Assay (IMAP fluorescence polarisation)
Assay type: biochemical
Settings: 10 μM ATP, 60 minutes, room temperature
Text: The DNA sequence corresponding to murine PKD1 (see FIG. 1) was inserted into pFastBAc Htb (Invitrogen, USA) at BamH1 and EcoR1 sites using standard molecular biology techniques.
The PKD1 described above was expressed as a hexahistidine tagged protein construct using a commercially available baculoviral expression system that induces protein production in insect cell culture (Bac-to-Bac® HT Baculovirus Expression System, Invitrogen). Protein was typically expressed by inoculating 1 L of sf9 cells with a genetically modified baculovirus containing the gene for the kinase domain of PKD1. Sf9 cells were obtained from ICR Ltd.
Purification of PKD1 was achieved by standard chromatographic procedures. Capture from crude centrifuged lysed cell supernatant was achieved using metal affinity chromatography (GE Healthcare Life Sciences, HiTrap Chelating chromatography column), and fractions showing PKD1 (as assessed by gel electrophoresis and western blot) were further purified by a single polish purification step performed using a mono Q anion exchange chromatography system (GE Healthcare Life Sciences, HiTrap HP Q column). […] This protocol describes the method for screening compounds as inhibitors of Protein Kinase D activity in a 384 well microplate format fluorescence polarisation IMAP assay performed using the Biomek FX.
Kinase Enzyme: Murine PKD1 kinase domain at ˜100 μg/mL, was purified from baculovirus (as described above), obtained from aliquots stored at −70° C. PKD was prepared with a final concentration of 0.1 μg/mL by diluting 1:300 in Reaction Buffer (30 μL per 9 mL-5 mL per plate with an additional 4 mL dead volume) and vortexing prior to use. It was necessary to check this concentration regularly in case of enzyme degradation.
(also known as MAPKAP K2 substrate) was obtained from Molecular Devices (Product code R7127). It was used at 300 nM by diluting 20 μM stock 1:66 in Kinase/Reaction Buffer (135 μL per 9 mL; 75 μL per 5 mL Reaction Buffer for blank wells requiring <1 mL per place with an additional 4 mL dead volume).
A 1 mM ATP stock in Reaction Buffer was prepared from a 10 mM stock in 20 mM NaOH and stored as aliquots at −70° C. It was used at 40 μM by diluting 1 mM stock 1:25 in Reaction Buffer (240 μL per 6 mL-2 mL per plate with an additional 4 mL dead volume) and vortexing prior to use.
IMAP Reagents: IMAP Binding Reagent (product code R7207) and Binding Buffer (product code R7208) were obtained from Molecular Devices and stored at +4° C. The beads were gently re-suspended before diluting by 1:400 in buffer (Binding Buffer is supplied as a 5× stock and so was diluted with water prior to use) and then vortexing before addition to wells. 16 mL water with 4 mL Binding Buffer and 50 μL Binding Reagent were used per plate (17 mL per plate with an additional 3 mL dead volume).
13 μL Substrate in Reaction Buffer was added to ‘blank’ wells to give 200 nM reaction concentration. […] 2 μL 10% DMSO/water was added to ‘blank’ and ‘control’ wells. 5 μL ATP in Reaction Buffer was added to all wells to give 10 μM reaction concentration. The reaction mixture was then incubated at room temperature for 60 minutes. The incubation period was followed by the addition of 40 μL IMAP Binding Reagent in Binding Buffer to all wells. The reaction was then further incubated at room temperature for […].
Percentage inhibition was calculated based on activity of the test sample minus the average values in the blank wells relative to the average values measured in control wells minus the average values in the blank wells.
IC50 values were calculated from 10 point dose sigmoid ‘dose-response’ curves using Xlfit software (IDBS inc, USA). Data were fitted to a 4 parameter logistic model/sigmoidal dose response:
where: A=fit minimum (locked to 0); B=fit maximum (locked to 100); C=fit midpoint (pre-fit to 1); D=slope at linear portion of curve, hillslope (pre-fit to 0.1)

Row | IC50 [nM] | SMILES
1 | 1000 to 10000 | COc1cccc(-c2cncc(-c3cccc(C(=O)NCCCN(C)C)c3)n2)c1 [X-001, N-(3-Dimethylamino-propyl)-3-[6-(3-methoxy-phenyl)-pyrazin-2-yl]-benzamide]
2 | 1000 to 10000 | COc1ccccc1-c1cncc(-c2cccc(C(=O)NCCN(C)C)c2)n1 [X-002, N-(2-Dimethylamino-ethyl)-3-[6-(2-methoxy-phenyl)-pyrazin-2-yl]-benzamide]
3 | 1000 to 10000 | COc1cc(-c2cncc(-c3cccc(C(=O)NCCN(C)C)c3)n2)cc(OC)c1OC [X-003, N-(2-Dimethylamino-ethyl)-3-[6-(3,4,5-trimethoxy-phenyl)-pyrazin-2-yl]-benzamide]
4 | < 1000 | CN(C)CCCNC(=O)c1cccc(-c2cncc(-c3ccc(O)cc3)n2)c1 [X-004, N-(3-Dimethylamino-propyl)-3-[6-(4-hydroxy-phenyl)-pyrazin-2-yl]-benzamide]
5 | < 1000 | CN(C)CCNC(=O)c1cccc(-c2cncc(-c3ccc(CO)cc3)n2)c1 [X-005, N-(2-Dimethylamino-ethyl)-3-[6-(4-hydroxymethyl-phenyl)-pyrazin-2-yl]-benzamide]
6 | < 1000 | CC(=O)Nc1cccc(-c2cncc(-c3cccc(C(=O)NCCCN(C)C)c3)n2)c1 [X-006, 3-[6-(3-Acetylamino-phenyl)-pyrazin-2-yl]-N-(3-dimethylamino-propyl)-benzamide]
7 | < 1000 | CN1CCN(C(=O)c2cccc(-c3cnc(N)c(-c4cccc5c4oc4ccccc45)n3)c2)CC1 [X-008, [3-(5-Amino-6-dibenzofuran-4-yl-pyrazin-2-yl)-phenyl]-(4-methyl-piperazin-1-yl)-methanone]
8 | 1000 to 10000 | COc1cc(-c2cncc(-c3cccc(C(=O)N4CCNCC4)c3)n2)ccc1O [X-010, {3-[6-(4-Hydroxy-3-methoxy-phenyl)-pyrazin-2-yl]-phenyl}-piperazin-1-yl-methanone]
9 | < 1000 | CN(C)CCNC(=O)c1cccc(-c2cnc(N)c(-c3cccc4c3oc3ccccc34)n2)c1 [X-012, 3-(5-Amino-6-dibenzofuran-4-yl-pyrazin-2-yl)-N-(2-dimethylamino-ethyl)-benzamide]
10 | < 1000 | CN(C)CCNC(=O)c1cccc(-c2cncc(-c3cccc4c3oc3ccccc34)n2)c1 [X-013, 3-(6-Dibenzofuran-4-yl-pyrazin-2-yl)-N-(2-dimethylamino-ethyl)-benzamide]
11 | 1000 to 10000 | COc1ccccc1-c1nc(-c2cccc(C(=O)NCCN(C)C)c2)cnc1N [X-015, 3-[5-Amino-6-(2-methoxy-phenyl)-pyrazin-2-yl]-N-(2-dimethylamino-ethyl)-benzamide]
12 | < 1000 | COc1cc(-c2nc(-c3cccc(C(=O)NCCN(C)C)c3)cnc2N)ccc1F [X-016, 3-[5-Amino-6-(4-fluoro-3-methoxy-phenyl)-pyrazin-2-yl]-N-(2-dimethylamino-ethyl)-benzamide]
13 | 1000 to 10000 | COc1cc(-c2cncc(-c3cccc(C(N)=O)c3)n2)ccc1O [X-018, 3-[6-(4-Hydroxy-3-methoxy-phenyl)-pyrazin-2-yl]-benzamide]
14 | < 1000 | COc1cc(-c2cncc(-c3cccc(C(=O)NC4CCN(C)CC4)c3)n2)ccc1O [X-019, 3-[6-(4-Hydroxy-3-methoxy-phenyl)-pyrazin-2-yl]-N-(1-methyl-piperidin-4-yl)-benzamide]
15 | < 1000 | COc1cc(-c2cncc(-c3cccc(C(=O)NCCN)c3)n2)ccc1O [X-021, N-(2-Amino-ethyl)-3-[6-(4-hydroxy-3-methoxy-phenyl)-pyrazin-2-yl]-benzamide]
16 | < 1000 | CCN(CC)CCNC(=O)c1cccc(-c2cncc(-c3ccc(O)c(OC)c3)n2)c1 [X-022, N-(2-Diethylamino-ethyl)-3-[6-(4-hydroxy-3-methoxy-phenyl)-pyrazin-2-yl]-benzamide]
17 | < 1000 | CN(C)CCNC(=O)c1cccc(-c2cnc(N)c(-c3ccc4cc(O)ccc4c3)n2)c1 [X-023, 3-[5-Amino-6-(6-hydroxy-naphthalen-2-yl)-pyrazin-2-yl]-N-(2-dimethylamino-ethyl)-benzamide]
18 | < 1000 | COc1cc(-c2nc(-c3cccc(C(=O)NCCN(C)C)c3)cnc2N)ccn1 [X-024, 3-[5-Amino-6-(2-methoxy-pyridin-4-yl)-pyrazin-2-yl]-N-(2-dimethylamino-ethyl)-benzamide]
19 | < 1000 | COc1ccc2cc(-c3nc(-c4cccc(C(=O)NCCN(C)C)c4)cnc3N)ccc2c1 [X-025, 3-[5-Amino-6-(6-methoxy-naphthalen-2-yl)-pyrazin-2-yl]-N-(2-dimethylamino-ethyl)-benzamide]
20 | < 1000 | COc1cccc(-c2nc(-c3cccc(C(=O)NCCN(C)C)c3)cnc2N)c1 [X-026, 3-[5-Amino-6-(3-methoxy-phenyl)-pyrazin-2-yl]-N-(2-dimethylamino-ethyl)-benzamide]
21 | < 1000 | CCN(CC)CCNC(=O)c1cccc(-c2cnc(N)c(-c3cccc(OC)c3)n2)c1 [X-027, 3-[5-Amino-6-(3-methoxy-phenyl)-pyrazin-2-yl]-N-(2-diethylamino-ethyl)-benzamide]
22 | < 1000 | COc1cc(-c2cc(-c3cccc(C(N)=O)c3)cnc2N)ccc1O [Y-001, 3-[6-Amino-5-(4-hydroxy-3-methoxy-phenyl)-pyridin-3-yl]-benzamide]
23 | 1000 to 10000 | COc1ccccc1-c1cc(-c2cccc(C(N)=O)c2)cnc1N [Y-002, 3-[6-Amino-5-(2-methoxy-phenyl)-pyridin-3-yl] benzamide]
24 | 1000 to 10000 | COc1ccccc1-c1cc(-c2cccc(C(=O)N3CCN(C)CC3)c2)cnc1N [Y-003, {3-[6-Amino-5-(2-methoxy-phenyl)-pyridin-3-yl]-phenyl}-(4-methyl-piperazin-1-yl)-methanone]
25 | 1000 to 10000 | COc1cc(-c2cc(-c3cccc(C(=O)N4CCN(C)CC4)c3)cnc2N)ccc1O [Y-004, {3-[6-Amino-5-(4-hydroxy-3-methoxy-phenyl)-pyridin-3-yl]-phenyl}-(4-methyl-piperazin-1-yl)-methanone]
26 | < 1000 | COc1cc(-c2cc(-c3cccc(C(=O)NCCN(C)C)c3)cnc2N)ccn1 [Y-005, 3-(2-Amino-2′-methoxy-[3,4′]bipyridinyl-5-yl)-N-(2-dimethylamino-ethyl)-benzamide]
27 | 1000 to 10000 | CN(C)CCNC(=O)c1cccc(-c2cnc(N)c(-c3ccc(Cl)nc3)c2)c1 [Y-006, 3-(2-Amino-6′-chloro-[3,3′]bipyridinyl-5-yl)-N-(2-dimethylamino-ethyl)-benzamide]
28 | < 1000 | CN(C)CCNC(=O)c1cccc(-c2cnc(N)c(-c3ccc(O)nc3)c2)c1 [Y-007, 3-(2-Amino-6′-hydroxy-[3,3′]bipyridinyl-5-yl)-N-(2-dimethylamino-ethyl)-benzamide]
29 | 1000 to 10000 | COc1ccc(-c2cc(-c3cccc(C(=O)NCCN(C)C)c3)cnc2N)cn1 [Y-008, 3-(2-Amino-6′-methoxy-[3,3′]bipyridinyl-5-yl)-N-(2-dimethylamino-ethyl)-benzamide]
30 | < 1000 | CN(C)CCNC(=O)c1cccc(-c2cnc(N)c(-c3ccc4c(c3)OCO4)c2)c1 [Y-010, 3-(6-Amino-5-benzo[1,3]dioxol-5-yl-pyridin-3-yl)-N-(2-dimethylamino-ethyl)-benzamide]
